Reference: US20230117777A1, “METHYLATION OF MCL-1 COMPOUNDS” (Amgen Inc., priority 2020, published 2023)

Experiment: Moisture sorption profile (DVS)
Format: physicochemical
Settings: by 95% RH; FIG. 6
Method: Moisture Sorption: Moisture sorption data was collected using a Surface Measurement Systems DVSAdvantage instrument. Equilibrium criteria were set at ±0.001% weight change in 10 minutes with a maximum equilibrium time of 360 minutes.

CO[C@]1(CN2CCN3CCCC[C@@H]3C2)/C=C/C[C@H](C)[C@@H](C)S(=O)(=O)NC(=O)c2ccc3c(c2)N(C[C@@H]2CC[C@H]21)C[C@@]1(CCCc2cc(Cl)ccc21)CO3 [crystalline hydrate form of compound A]
weight gain (moisture sorption profile): 3.3%
